Measured values: US12673026B2, “Liposomal compositions and methods of use thereof for improved stability, bioavailability and sustained release” (SpecNova LLC, priority 2023, dated 2026)

How the values were obtained:
[1] = Berberine chloride Caco-2 permeability; assay type: in vitro ADME, Human; details: human; Caco-2 passage 38; formulation: supernatant of 1 mg/mL in HBSS; pure compound 10 μM; apical to basolateral
Description: (§1) The study was performed using Caco-2 cells at a passage number of 38 seeded on a 24-well transwell plate. […] Instead, the formulation was added to the HBSS buffer at a concentration of 1 mg/mL, vortexed, and centrifuged for 15 min at 10,000 G-force. The supernatant was used for permeability assessment. For pure compound, the permeability study was performed at 10 μM final concentration. Compound solutions were added to the apical compartments of the transwell and blank buffer on the basolateral side. FIG. 9 provides a visual summary of this process.

[2] = system: Caco-2 cells; experiment: Berberine chloride Caco-2 permeability; assay type: in vitro ADME, Human; details: Caco-2 passage 38, A --> B
Description: as §1

[3] = Randomized, double-blind, placebo-controlled crossover trial: plasma and leukocyte vitamin C concentration after single dose; assay type: in vivo, human; details: single 500 mg dose; p<0.001
Description: Venous blood samples were collected 0, 0.5-, 1-, 1.5-, 2-, 3-, 4-, 6-, 8-, 12-, and 24-hours after ingestion and were analyzed for plasma and leukocyte vitamin C concentration.

[4] = CoQ10 Caco-2 permeability; assay type: in vitro ADME, Human; details: human; Caco-2 passage 38; formulation: supernatant of 1 mg/mL in HBSS; pure compound 10 μM; apical to basolateral
Description: as §1

[5] = system: Caco-2 cells; experiment: CoQ10 Caco-2 permeability; assay type: in vitro ADME, Human; details: Caco-2 passage 38, A --> B
Description: as §1

[6] = Carnosine permeability across Caco-2 cells; assay type: in vitro ADME, Human; details: human; Caco-2 passage 26; 20 μM in HBSS; apical to basolateral
Description: (§2) The study was performed using Caco-2 cells at a passage number of 26 seeded on a 24-well transwell plates. The permeability of carnosine was studied at a concentration of 20 μM. Compounds were solubilized in HBSS and added to apical compartment of transwells and blank buffer on basolateral side.

[7] = system: Caco-2 cells; experiment: Carnosine permeability across Caco-2 cells; assay type: in vitro ADME, Human; details: Caco-2 passage 26, A-->B
Description: as §2

[8] = L-carnosine stability in simulated gastric and intestinal fluids; assay type: physicochemical; details: for % Remaining: 10 μM, 37.0° C.
Description: Three fluids were simulated: fasted (pH 1.2) and fed (pH 3.5) simulated gastric fluid (SGF) and simulated intestinal fluid (SIF) (pH 6.8). […] A zero time point was taken after adding the appropriate stock to each fluid (N=2) and mixed by pipette. Time points were then taken at 5, 10, 15, 30, 60, 90, and 120 minutes. These were quenched with ACN and kept on ice. The samples were then added to 50% ACN in […] ammonium acetate buffer (pH=3.6) with Verapamil for Internal Standard (IS) and filtered before analysis.
Two concentrations of working stocks were made at 5000 ng/ml and 200 ng/ml. In Table 12, diluent is 50% ACN in […] ammonium acetate buffer (pH=3.6). The total analytical volume was 200 μL for all standards and samples. Six sets of QCs were used along with the samples and seven calibration standards. All were analyzed by UPLC-MS/MS on the same day as preparation.

[9] = Quercetin Caco-2 permeability; assay type: in vitro ADME, Human; details: human; Caco-2 passage 28; 20 μM in HBSS; apical to basolateral
Description: (§3) The study was performed using Caco-2 cells at a passage number of 28 seeded on a 96-well Transwell plates. Permeability was studied at a concentration of 20 μM. Compounds were solubilized in HBSS and added to apical compartment of the Transwell plate and blank buffer on basolateral side. FIG. 17 provides a visual summary of this process.

[10] = system: Caco-2 cells; experiment: Quercetin Caco-2 permeability; assay type: in vitro ADME, Human; details: Caco-2 passage 28, A-->B
Description: as §3

Question: Which results are given for COc1ccc2cc3[n+](cc2c1OC)CCc1cc2c(cc1-3)OCO2 [Sigma Aldrich Berberine Chloride, Berberine Chloride]?
Answer: Papp A→B at 10 μM [1]: 2.17 ± 0.17 ×10⁻⁶ cm/s; Permeability Class (High/Low) [2]: Low

Question: For O=C1O[C@H]([C@@H](O)CO)C(O)=C1O [VIT C, L-Ascorbic acid], which “Cmax and AUC0-24 in plasma and in leukocytes compared to placebo” value [3] is on record?
Answer: Its value is “significantly greater”.

Question: With COC1=C(OC)C(=O)C(C/C=C(\C)CC/C=C(\C)CC/C=C(\C)CC/C=C(\C)CC/C=C(\C)CC/C=C(\C)CC/C=C(\C)CC/C=C(\C)CC/C=C(\C)CCC=C(C)C)=C(C)C1=O [CoQ10 Reference Standard, CoQ10] as the molecule, how does the Papp A→B at 10 μM [4] read?
Answer: Its Papp A→B at 10 μM is 0.2 ± 0.13 ×10⁻⁶ cm/s.

Question: And the “Permeability Class (High/Low)” value [5]?
Answer: The value was “Low”.

Question: For NCCC(=O)N[C@@H](Cc1cnc[nH]1)C(=O)O [Carnosine, L-carnosine], which Papp A→B at 20 μM [6] is on record?
Answer: The Papp A→B at 20 μM was 3.05 ± 0.62 ×10⁻⁶ cm/s.

Question: What about the “Permeability Class (High/Low)” value [7] of the same molecule?
Answer: Its value is “Low”.

Question: What about the “% Remaining” value ([8]; Fasted SGF (pH 1.2), 0 minutes) of the same molecule?
Answer: The value was 100%.

Question: What about the “% Remaining” value ([8]; Fasted SGF (pH 1.2), 5 minutes) of the same molecule?
Answer: Its value is 100.3%.

Question: And the “% Remaining” value ([8]; Fasted SGF (pH 1.2), 10 minutes)?
Answer: The value was 95.5%.

Question: What about the “% Remaining” value ([8]; Fasted SGF (pH 1.2), 15 minutes) of the same molecule?
Answer: Its value is 97.5%.

Question: What about the “% Remaining” value ([8]; Fasted SGF (pH 1.2), 30 minutes) of the same molecule?
Answer: The value was 94%.

Question: What about the “% Remaining” value ([8]; Fasted SGF (pH 1.2), 60 minutes) of the same molecule?
Answer: The value was 99.4%.

Question: And the “% Remaining” value ([8]; Fasted SGF (pH 1.2), 90 minutes)?
Answer: Its value is 101.5%.

Question: And the “% Remaining” value ([8]; Fasted SGF (pH 1.2), 120 minutes)?
Answer: Its value is 96.5%.

Question: What about the “% Remaining” value ([8]; Fed SGF (pH 3.5), 0 minutes) of the same molecule?
Answer: The value was 100%.

Question: And the “% Remaining” value ([8]; Fed SGF (pH 3.5), 5 minutes)?
Answer: The value was 103.9%.

Question: And the “% Remaining” value ([8]; Fed SGF (pH 3.5), 10 minutes)?
Answer: Its value is 97.6%.

Question: And the “% Remaining” value ([8]; Fed SGF (pH 3.5), 15 minutes)?
Answer: Its value is 91.9%.

Question: And the “% Remaining” value ([8]; Fed SGF (pH 3.5), 30 minutes)?
Answer: Its value is 96.5%.

Question: What about the “% Remaining” value ([8]; Fed SGF (pH 3.5), 60 minutes) of the same molecule?
Answer: Its value is 102.2%.

Question: And the “% Remaining” value ([8]; Fed SGF (pH 3.5), 90 minutes)?
Answer: The value was 97.4%.

Question: What about the “% Remaining” value ([8]; Fed SGF (pH 3.5), 120 minutes) of the same molecule?
Answer: Its value is 97.4%.

Question: And the “% Remaining” value ([8]; SIF (pH 6.8), 0 minutes)?
Answer: Its value is 100%.

Question: And the “% Remaining” value ([8]; SIF (pH 6.8), 5 minutes)?
Answer: The value was 96.9%.

Question: What about the “% Remaining” value ([8]; SIF (pH 6.8), 10 minutes) of the same molecule?
Answer: Its value is 91%.

Question: And the “% Remaining” value ([8]; SIF (pH 6.8), 15 minutes)?
Answer: Its value is 89%.

Question: And the “% Remaining” value ([8]; SIF (pH 6.8), 30 minutes)?
Answer: The value was 95.8%.

Question: What about the “% Remaining” value ([8]; SIF (pH 6.8), 60 minutes) of the same molecule?
Answer: Its value is 103%.

Question: And the “% Remaining” value ([8]; SIF (pH 6.8), 90 minutes)?
Answer: The value was 100.1%.

Question: And the “% Remaining” value ([8]; SIF (pH 6.8), 120 minutes)?
Answer: The value was 99.1%.

Question: What about the “stability in SGF and SIF” value ([8]; over 120 minutes) of the same molecule?
Answer: The value was “stable”.

Question: With O=c1c(O)c(-c2ccc(O)c(O)c2)oc2cc(O)cc(O)c12 [USP Quercetin, quercetin] as the molecule, how does the Papp A→B at 20 μM [9] read?
Answer: The Papp A→B at 20 μM was 8.83 ± 0.17 ×10⁻⁶ cm/s.

Question: What about the “Permeability Class (High/Low)” value [10] of the same molecule?
Answer: The value was “High”.
